From the supplement of paper PMC10307832

What was measured:
Assay in all cases: relative viability (nuclei count vs DMSO), 5 days (fraction); higher = more cells survive
[1] = compound: COc1cc(Nc2ncc(F)c(Nc3ccc4c(n3)NC(=O)C(C)(C)O4)n2)cc(OC)c1OC [R406] + COc1cccc2cc(-c3nc([C@H]4CC[C@H](C(=O)O)CC4)n4ncnc(N)c34)[nH]c12 [OSI-027] (partner 0.5 µM)
In short: (§1)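 After 5 days of treatment, lung cancer cells in 1536-well plates were fixed and stained in a single step (final 0.05% Triton X-100, 1% formaldehyde, 1 ug/ml Hoechst) and their nuclei counted on 4× images. Treatment had been applied by pin tool the day after seeding as one drug alone or as a fixed anchor-drug dose with five library-drug doses (not always all listed) in √10 steps. Relative viability is the nuclei count of treated wells divided by that of vehicle wells, and values are medians of duplicate plates.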

[2] = compound: COc1cc(Nc2ncc(F)c(Nc3ccc4c(n3)NC(=O)C(C)(C)O4)n2)cc(OC)c1OC [R406] + O=C(CCCCCCC(=O)Nc1ccccc1)NO [Vorinostat] (partner 1 µM)
In short: as §1

[3] = compound: O=C(/C=C/c1cccnc1)NCCCCC1CCN(C(=O)c2ccccc2)CC1 [Daporinad] + CC1(C)CCC(c2ccc(Cl)cc2)=C(CN2CCN(c3ccc(C(=O)NS(=O)(=O)c4ccc(N[C@H](CCN5CCOCC5)CSc5ccccc5)c(S(=O)(=O)C(F)(F)F)c4)cc3)CC2)C1 [Navitoclax] (partner 0.5 µM)
In short: as §1

[4] = compound: O=C(/C=C/c1cccnc1)NCCCCC1CCN(C(=O)c2ccccc2)CC1 [Daporinad] + C[C@]1(O)C[C@@H](c2nc(-c3ccc4ccc(-c5ccccc5)nc4c3)c3c(N)nccn32)C1 [Linsitinib] (partner 1 µM)
In short: as §1

Row | Cell Line | relative viability ([1]; first compound 0.08 µM) | relative viability ([1]; first compound 0.253 µM) | relative viability ([1]; first compound 0.8 µM) | relative viability ([1]; first compound 2.53 µM) | relative viability ([1]; first compound 8 µM) | relative viability ([2]; first compound 0.08 µM) | relative viability ([2]; first compound 0.253 µM) | relative viability ([2]; first compound 0.8 µM) | relative viability ([2]; first compound 2.53 µM) | relative viability ([2]; first compound 8 µM) | relative viability ([3]; first compound 0.0005 µM) | relative viability ([3]; first compound 0.001581 µM) | relative viability ([3]; first compound 0.005 µM) | relative viability ([3]; first compound 0.01581 µM) | relative viability ([4]; first compound 0.0005 µM) | relative viability ([4]; first compound 0.001581 µM) | relative viability ([4]; first compound 0.005 µM) | relative viability ([4]; first compound 0.01581 µM)
1 | LXF-289 | 0.805 | 0.84 | 0.931 | 0.377 | 0.487 | 0.632 | 0.772 | 0.787 | 0.654 | 0.616 | 0.868 | 0.951 | 0.971 | 1.02 | 0.904 | 0.972 | 1 | 1.1
2 | NCI-H23 | 0.588 | 0.647 | 0.602 | – | 0.269 | 0.605 | 0.635 | 0.734 | 0.155 | 0.216 | 0.83 | 0.637 | 0.658 | 0.447 | 0.699 | 0.518 | 0.537 | 0.279
3 | NCI-H322M | 0.524 | 0.514 | 0.602 | 0.348 | 0.347 | 0.816 | 0.873 | 0.864 | 0.633 | 0.468 | 1.25 | 1.43 | 1.25 | 0.995 | 0.995 | 1.03 | 0.926 | 0.925
4 | NCI-H441 | 0.528 | 0.683 | 0.574 | 0.255 | 0.408 | 0.669 | 0.754 | 0.76 | 0.905 | 0.699 | – | 0.609 | 0.815 | 0.559 | 0.533 | 0.473 | 0.605 | 0.56
5 | NCI-H460 | 0.621 | 0.587 | 1.13 | 0.288 | 0.111 | 0.673 | 1.04 | 0.917 | 0.645 | 0.742 | 1.09 | 1.32 | 0.978 | 0.855 | 0.759 | 0.928 | 0.818 | 0.777
